Where “and” joins values, the source holds several entries; their conditions need not be identical. Equal values may be shown once.
Experiments:
Rattus norvegicus [1] = assay: Distribution of radioactivity was determined in blood at 30 min after intravenous administration of 1,3-Disubstituted Triacylglycerols in rats; format: ADME, organism-based; conditions: in vivo, 0.5 h
Rattus norvegicus [2] = assay: Distribution of radioactivity was determined in plasma at 3h after intravenous administration of [125I]-labeled 2-oleoglycerol 1,3-Bis-[omega-(3-amino-2,4,6-triiodophenyl)alkanoates] in rats; format: ADME, organism-based; conditions: in vivo
Rattus norvegicus [3] = assay: Analysis of lipid-soluble radioactivity in liver 0.5 hour after iv administration of [125I]-labeled 2-Oleoyl 1,3-disubstituted Triacylglycerols expressed as %parent compound (by TLC with authentic [125I]-labeled standard) from rat; format: ADME, organism-based; conditions: in vivo
Rattus norvegicus [4] = assay: Distribution of radioactivity was determined in heart at 30 min after intravenous administration of [125I]-labeled 2-oleoglycerol 1,3-Bis-[omega-(3-amino-2,4,6-triiodophenyl)alkanoates] in rats; format: ADME, organism-based; conditions: in vivo, 0.5 h
Rattus norvegicus [5] = assay: Distribution of radioactivity was determined in spleen at 3h after intravenous administration of [125I]-labeled 2-oleoglycerol 1,3-Bis-[omega-(3-amino-2,4,6-triiodophenyl)alkanoates] in rats; format: ADME, organism-based; conditions: in vivo
Rattus norvegicus [6] = assay: Distribution of radioactivity was determined in liver at 3h after intravenous administration of [125I]-labeled 2-oleoglycerol 1,3-Bis-[omega-(3-amino-2,4,6-triiodophenyl)alkanoates] in rats; format: ADME, organism-based; conditions: in vivo
Rattus norvegicus [7] = assay: Polyacrylamide Gel Electrophoresis (PAGE) to determined the concentration of below albumin(BA) in rats after iv administration of [125I]-labeled 2-Oleolyl 1,3-disubstituted triglycerols was reported; format: ADME, organism-based; conditions: in vivo
Rattus norvegicus [8] = assay: Polyacrylamide Gel Electrophoresis (PAGE) to determined the concentration of high density lipoprotein (HDL) in rats after iv administration of [125I]-labeled 2-Oleolyl 1,3-disubstituted triglycerols was reported; format: ADME, organism-based; conditions: in vivo
Rattus norvegicus [9] = assay: Distribution of radioactivity was determined in spleen at 48 hr after intravenous administration of 1,3-Disubstituted Triacylglycerols in rats; format: ADME, organism-based; conditions: in vivo
Rattus norvegicus [10] = assay: Distribution of radioactivity was determined in liver at 24 hr after intravenous administration of 1,3-Disubstituted Triacylglycerols in rats; format: ADME, organism-based; conditions: in vivo
Rattus norvegicus [11] = assay: Distribution of radioactivity was determined in thyroid at 24 hr after intravenous administration of [125I]-labeled 2-oleoglycerol 1,3-Bis-[omega-(3-amino-2,4,6-triiodophenyl)alkanoates] in rats; format: ADME, organism-based, Thyroid gland; conditions: in vivo
Rattus norvegicus [12] = assay: Distribution of radioactivity was determined in liver at 24 hr after intravenous administration of [125I]-labeled 2-oleoglycerol 1,3-Bis-[omega-(3-amino-2,4,6-triiodophenyl)alkanoates] in rats; format: ADME, organism-based; conditions: in vivo
Rattus norvegicus [13] = assay: Distribution of radioactivity was determined in heart at 24 after intravenous administration of [125I]-labeled 2-oleoglycerol 1,3-Bis-[omega-(3-amino-2,4,6-triiodophenyl)alkanoates] in rats; format: ADME, organism-based; conditions: in vivo
Rattus norvegicus [14] = assay: Distribution of radioactivity was determined in blood at 48 hr after intravenous administration of 1,3-Disubstituted Triacylglycerols in rats; format: ADME, organism-based; conditions: in vivo
Rattus norvegicus [15] = assay: Distribution of radioactivity was determined in blood at 3h after intravenous administration of 1,3-Disubstituted Triacylglycerols in rats; format: ADME, organism-based; conditions: in vivo
Rattus norvegicus [16] = assay: Distribution of radioactivity was determined in kidney at 30 min after intravenous administration of [125I]-labeled 2-oleoglycerol 1,3-Bis-[omega-(3-amino-2,4,6-triiodophenyl)alkanoates] in rats; format: ADME, organism-based; conditions: in vivo, 0.5 h
Rattus norvegicus [17] = assay: Distribution of radioactivity was determined in thyroid at 3h after intravenous administration of [125I]-labeled 2-oleoglycerol 1,3-Bis-[omega-(3-amino-2,4,6-triiodophenyl)alkanoates] in rats; format: ADME, organism-based, Thyroid gland; conditions: in vivo
Rattus norvegicus [18] = assay: Polyacrylamide Gel Electrophoresis (PAGE) to determined the concentration of albumin(ALB) in rats after iv administration of [125I]-labeled 2-Oleolyl 1,3-disubstituted triglycerols was reported; format: ADME, organism-based; conditions: in vivo
Rattus norvegicus [19] = assay: Distribution of radioactivity was determined in spleen at 30 min after intravenous administration of 1,3-Disubstituted Triacylglycerols in rats; format: ADME, organism-based; conditions: in vivo, 0.5 h
Rattus norvegicus [20] = assay: Distribution of radioactivity was determined in plasma at 24 hr after intravenous administration of [125I]-labeled 2-oleoglycerol 1,3-Bis-[omega-(3-amino-2,4,6-triiodophenyl)alkanoates] in rats; format: ADME, organism-based; design: unit not given here; conditions: in vivo
Rattus norvegicus [21] = assay: Analysis of lipid-soluble radioactivity in liver 24 hour after iv administration of [125I]-labeled 2-Oleoyl 1,3-disubstituted Triacylglycerols expressed as %parent compound (by TLC with authentic [125I]-labeled standard) from rat; format: ADME, organism-based; conditions: in vivo
Rattus norvegicus [22] = assay: Distribution of radioactivity was determined in thyroid at 30 min after intravenous administration of [125I]-labeled 2-oleoglycerol 1,3-Bis-[omega-(3-amino-2,4,6-triiodophenyl)alkanoates] in rats; format: ADME, organism-based, Thyroid gland; conditions: in vivo, 0.5 h
Rattus norvegicus [23] = assay: Distribution of radioactivity was determined in spleen at 24 hr after intravenous administration of [125I]-labeled 2-oleoglycerol 1,3-Bis-[omega-(3-amino-2,4,6-triiodophenyl)alkanoates] in rats; format: ADME, organism-based; conditions: in vivo
Rattus norvegicus [24] = assay: Distribution of radioactivity was determined in blood at 3h after intravenous administration of [125I]-labeled 2-oleoglycerol 1,3-Bis-[omega-(3-amino-2,4,6-triiodophenyl)alkanoates] in rats; format: ADME, organism-based; conditions: in vivo
Rattus norvegicus [25] = assay: Distribution of radioactivity was determined in heart at 3h after intravenous administration of [125I]-labeled 2-oleoglycerol 1,3-Bis-[omega-(3-amino-2,4,6-triiodophenyl)alkanoates] in rats; format: ADME, organism-based; conditions: in vivo
Rattus norvegicus [26] = assay: Analysis of lipid-soluble radioactivity in plasma 24 hour after iv administration of [125I]-labeled 2-Oleoyl 1,3-disubstituted Triacylglycerols and represented as % CHCl3/CH3OH from rat; format: ADME, organism-based; conditions: in vivo
Rattus norvegicus [27] = assay: Distribution of radioactivity was determined in liver at 30 min after intravenous administration of [125I]-labeled 2-oleoglycerol 1,3-Bis-[omega-(3-amino-2,4,6-triiodophenyl)alkanoates] in rats; format: ADME, organism-based; conditions: in vivo, 0.5 h
Rattus norvegicus [28] = assay: Distribution of radioactivity was determined in plasma at 30 min after intravenous administration of [125I]-labeled 2-oleoglycerol 1,3-Bis-[omega-(3-amino-2,4,6-triiodophenyl)alkanoates] in rats; format: ADME, organism-based; conditions: in vivo, 0.5 h
Rattus norvegicus [29] = assay: Analysis of lipid-soluble radioactivity in plasma 0.5 hour after iv administration of [125I]-labeled 2-Oleoyl 1,3-disubstituted Triacylglycerols and represented as % CHCl3/CH3OH from rat; format: ADME, organism-based; conditions: in vivo
Rattus norvegicus [30] = assay: Polyacrylamide Gel Electrophoresis (PAGE) to determined the concentration of low density lipoprotein (LDL) in rats after iv administration of [125I]-labeled 2-Oleolyl 1,3-disubstituted triglycerols was reported; format: ADME, organism-based; conditions: in vivo
Rattus norvegicus [31] = assay: Distribution of radioactivity was determined in spleen at 24 hr after intravenous administration of 1,3-Disubstituted Triacylglycerols in rats; format: ADME, organism-based; conditions: in vivo
Rattus norvegicus [32] = assay: Distribution of radioactivity was determined in kidney at 3h after intravenous administration of [125I]-labeled 2-oleoglycerol 1,3-Bis-[omega-(3-amino-2,4,6-triiodophenyl)alkanoates] in rats; format: ADME, organism-based; conditions: in vivo
Rattus norvegicus [33] = assay: Distribution of radioactivity was determined in liver at 48 hr after intravenous administration of 1,3-Disubstituted Triacylglycerols in rats; format: ADME, organism-based; conditions: in vivo
Rattus norvegicus [34] = assay: Distribution of radioactivity was determined in liver at 3h after intravenous administration of 1,3-Disubstituted Triacylglycerols in rats; format: ADME, organism-based; conditions: in vivo
Rattus norvegicus [35] = assay: Analysis of lipid-soluble radioactivity in liver 0.5 hour after iv administration of [125I]-labeled 2-Oleoyl 1,3-disubstituted Triacylglycerols and represented as % CHCl3/CH3OH from rat; format: ADME, organism-based; conditions: in vivo

Distribution of radioactivity (Rattus norvegicus [1]) [% dose/organ]	Distribution of radioactivity (Rattus norvegicus [2]) [% dose/g]	Lipid-soluble radioactivity (Rattus norvegicus [3])	Distribution of radioactivity (Rattus norvegicus [4]) [% dose/g]	Distribution of radioactivity (Rattus norvegicus [5]) [% dose/g]	Distribution of radioactivity (Rattus norvegicus [6]) [% dose/g]	Radioactivity (Rattus norvegicus [7]) [%]	Radioactivity (Rattus norvegicus [8]) [%]	Distribution of radioactivity (Rattus norvegicus [9]) [% dose per organ]	Distribution of radioactivity (Rattus norvegicus [10]) [% dose/organ]	Distribution of radioactivity (Rattus norvegicus [11]) [% dose/g]	Distribution of radioactivity (Rattus norvegicus [12]) [% dose/g]	Distribution of radioactivity (Rattus norvegicus [13]) [% dose/g]	Distribution of radioactivity (Rattus norvegicus [14]) [% dose per organ]	Distribution of radioactivity (Rattus norvegicus [15]) [% dose/organ]	Distribution of radioactivity (Rattus norvegicus [16]) [% dose/g]	Distribution of radioactivity (Rattus norvegicus [17]) [% dose/g]	Radioactivity (Rattus norvegicus [18]) [%]	Distribution of radioactivity (Rattus norvegicus [19]) [% dose/organ]	Distribution of radioactivity (Rattus norvegicus [20])	other results	SMILES
7.6	0.07	85.1	0.36	23.6	10.3	1.1	0.7	16.6	72.5	2.58	9.09	0.03	0.1	0.5	0.1	0.27	1.8	12	0.01	Lipid-soluble radioactivity (Rattus norvegicus [21]): 87.5; Distribution of radioactivity (Rattus norvegicus [22]): 0.16 % dose/g; Distribution of radioactivity (Rattus norvegicus [23]): 24.2 % dose/g; Distribution of radioactivity (Rattus norvegicus [24]): 0.04 % dose/g; Distribution of radioactivity (Rattus norvegicus [25]): 0.1 % dose/g; Lipid-soluble radioactivity (Rattus norvegicus [26]): 24.4; Distribution of radioactivity (Rattus norvegicus [27]): 7.9 % dose/g; Distribution of radioactivity (Rattus norvegicus [28]): 1.25 % dose/g; Lipid-soluble radioactivity (Rattus norvegicus [29]): 54.2 and 86.3; Radioactivity (Rattus norvegicus [30]): 0.6%; Distribution of radioactivity (Rattus norvegicus [31]): 12.2 % dose/organ; Distribution of radioactivity (Rattus norvegicus [32]): 0.04 % dose/g; Distribution of radioactivity (Rattus norvegicus [33]): 59.7 % dose/organ; Distribution of radioactivity (Rattus norvegicus [34]): 79 % dose/organ; Lipid-soluble radioactivity (Rattus norvegicus [35]): 62.6	CCCCCCCC/C=C/CCCCCCCC(=O)OC(COC(=O)Cc1c(I)cc(I)c(N)c1I)COC(=O)Cc1c(I)cc(I)c(N)c1I
4.8	0.24	96.8	0.23	23.5	8.74	0.6	7	3.1	34.9	5.13	4.2	0.07	0.8	2.2	0.09	0.91	15	13.9	0.14	Lipid-soluble radioactivity (Rattus norvegicus [21]): 97.9; Distribution of radioactivity (Rattus norvegicus [22]): 0.54 % dose/g; Distribution of radioactivity (Rattus norvegicus [23]): 10.4 % dose/g; Distribution of radioactivity (Rattus norvegicus [24]): 0.2 % dose/g; Distribution of radioactivity (Rattus norvegicus [25]): 0.2 % dose/g; Lipid-soluble radioactivity (Rattus norvegicus [26]): 80.6; Distribution of radioactivity (Rattus norvegicus [27]): 7.01 % dose/g; Distribution of radioactivity (Rattus norvegicus [28]): 0.65 % dose/g; Lipid-soluble radioactivity (Rattus norvegicus [29]): 89.9; Radioactivity (Rattus norvegicus [30]): 4.8%; Distribution of radioactivity (Rattus norvegicus [31]): 5.8 % dose/organ; Distribution of radioactivity (Rattus norvegicus [32]): 0.21 % dose/g; Distribution of radioactivity (Rattus norvegicus [33]): 22.4 % dose/organ; Distribution of radioactivity (Rattus norvegicus [34]): 66 % dose/organ; Lipid-soluble radioactivity (Rattus norvegicus [35]): 91.3	CCCCCCCC/C=C/CCCCCCCC(=O)OC(COC(=O)CCCCCc1c(I)cc(I)c(N)c1I)COC(=O)CCCCCc1c(I)cc(I)c(N)c1I
